Data from patent US20070172471A1, “Method for identifying an anti- streptococcal agent and its use for treating streptococcal infections” (Hansa Medical AB, priority 2003, published 2007).

Assays:
[1] = test system: thrombin-induced coagulation of normal plasma; assay: Clotting assay (thrombin clotting time); type: biochemical; conditions: human plasma, peptides 100 μg/ml, 15 min 37° C., FIG. 5A
Procedure: Clotting assay—The thrombin clotting time (TCT) was measured in a coagulometer (Amelung, Lemgo, Germany). Samples of 200 μl human citrate-treated plasma were incubated with 4 μl of peptide H-2395 or H-2940 (5 mg/ml) for 15 min at 37° C. Clotting was initiated by adding 100 μl of the TCT reagent (Sigma Chemicals, St. Louis, Mo.).

[2] = test system: purified PMNs in a mixture of plasma and M1 protein; assay: M1 protein-induced PMN aggregation, scanning electron microscopy; type: cell-based, human
Procedure: Cell culture, neutrophil isolation, and stimulation of cells. Human PMNs were isolated from fresh heparinized blood of healthy volunteers using NIM, a single step density gradient medium, according to the instructions supplied by the manufacture. PMNs were counted with a hemocytometer, resuspended in MEM medium at 10^7 cells/ml and maintained on rotation in this medium at room temperature until use. All experiments on isolated PMNs were performed in Na-medium and initiated within 1 h of PMN isolation. Neutrophilic proteinase release was induced by PMN activation through antibody cross-linking of CD11 b/CD18 as described previously (Gautam et al., 2000, J. Exp. Med., 191, 1829-1839).
Scanning electron microscopy—Probes were gently applied to Millipore filters (Waters Corporation, Milford). Samples were then sucked down to the filters by a wet filter paper lying underneath. The filters were fixed in 2% (v/v) glutaraldehyde, 0.1 M sodium cacodylate, 0.1 M sucrose, pH 7.2 for 1 h at 4° C., and washed with 0.15 M cacodylate, pH 7.2. The filters were postfixed with 1% (w/v) osmium tetroxide, 0.15 M sodium cacodylate, pH 7.2, for 1 h at 4° C., washed, and stored in cacodylate buffer. […]

[3] = test system: S. pyogenes AP1 bacteria infected mice; type: in vivo, mouse; conditions: s.c. AP1 bacteria with 400 μg peptide, i.v. peptide after 30 min, lungs six hours after infection, scanning electron microscopy
[4] = test system: mice of the C57BL/6 strain
[5] = test system: thrombin-induced coagulation of normal plasma; conditions: Laudano and Doolittle, 1980; cited from earlier work
TNF-stimulated PMNs = conditions: Loike et al., 1991; cited from earlier work
PMNs = conditions: Ruf and Patscheke, 1995; cited from earlier work
[6] = test system: M1 protein-induced release of HBP from PMNs in human blood; conditions: M1 protein 1 μg/ml, 30 min 37° C., FIG. 2 and FIG. 5B
Procedure: HBP release. 100 μl human blood were diluted in PBS to a final volume of 1.0 ml and incubated with various PMNs-activating components for 30 min at 37° C. Cells were centrifuged (300×g for 15 min) and the supernatant was analyzed by sandwich ELISA. In order to quantify the total amount of HBP in blood, cells were lysed with 0.02% (v/v) Triton X-100, and pelleted as described above.

[7] = M1 protein 15 μg/animal with peptide 400 μg/animal i.v., 30 min

Gly-Pro-Arg-Pro (GPRP)
thrombin-induced coagulation / clotting time [1]: completely blocked thrombin-induced coagulation | M1 protein-induced PMN aggregation [2]: inhibited the aggregation | lung damage in infected mice [3]: much less affected | M1 protein induced lung lesions (hemorrhage and tissue destruction), light microscopy [4, 7]: almost completely prevented | M1 protein-caused lung damage, scanning electron microscopy [4, 7]: contained no precipitates | ratio of lung area containing protein aggregates versus total lung area ([4]; M1 protein plus peptide i.v., six lung sections per animal, electron microscopy): 6±2% | clot formation [5]: prevents clot formation | adherence of TNF-stimulated PMNs to fibrinogen-coated surfaces (TNF-stimulated PMNs): block adherence | platelet-induced activation of PMNs (PMNs): inhibited | effect on M1 protein-induced release of HBP [6]: blocked the mobilization of HT3P by M1 protein in a dose dependent manner
